According to ChEMBL document CHEMBL1125949, “Synthesis and biological evaluation of 3-amino-2-(4-chlorophenyl)1,1-difluoropropyl phosphonic acid” (Bioorg Med Chem Lett, 1991):

Species on record: Rattus norvegicus
Assay: GABA-B agonistic activity in rat anococcygeus
Assay type: functional

## NCC(c1ccc(Cl)cc1)C(F)(F)P(=O)(O)O (stereo unspecified)
  EC50: ~300 µM
